Each structure is given as a SMILES string.

This assay concerns GM1 production in Jurkat cells. As to the kind of experiment: cells. The assay is classed as cell-based. The settings on record: Homo sapiens, Jurkat, 72 h.
As usually defined, the IC50 is the concentration that gives 50% inhibition. The low end stands for higher potency, the high end for lower potency. In the case of `O=C(NC1CCc2cc(-c3ccc(F)cc3)ccc21)O[C@@H]1CN2CCC1CC2` (stereo partly drawn) [Example 1, (S)-quinuclidin-3-yl (5-(4-fluorophenyl)-2,3-dihydro-1H-inden-1-yl)carbamate], 139 nM corresponded to half-maximal inhibition (IC50).

The compound `O=C(NC1CCc2cc(-c3ccc(Cl)cc3)ccc21)O[C@@H]1CN2CCC1CC2` (stereo partly drawn) [Example 2, (S)-quinuclidin-3-yl (5-(4-chlorophenyl)-2,3-dihydro-1H-inden-1-yl)carbamate] returned a half-inhibitory concentration (IC50) of 202 nM.

`O=C(NC1CCc2cc(-c3ccc(C(F)(F)F)cc3)ccc21)O[C@@H]1CN2CCC1CC2` (stereo partly drawn) [Example 3, (S)-quinuclidin-3-yl (5-(4-(trifluoromethyl)phenyl)-2,3-dihydro-1H-inden-1-yl)carbamate] gave a half-maximal inhibitory concentration (IC50) of 142 nM.

For `O=C(NC1CCc2cc(-c3ccc(OC(F)(F)F)cc3)ccc21)O[C@@H]1CN2CCC1CC2` (stereo partly drawn) [Example 4, (S)-quinuclidin-3-yl (5-(4-(trifluoromethoxy)phenyl)-2,3-dihydro-1H-inden-1-yl)carbamate], the IC50 stood at 95.8 nM.

`O=C(NC1CCc2cc(-c3cccc(F)c3)ccc21)O[C@@H]1CN2CCC1CC2` (stereo partly drawn) [Example 5, (S)-quinuclidin-3-yl (5-(3-fluorophenyl)-2,3-dihydro-1H-inden-1-yl)carbamate] had an IC50 of 70.2 nM.

In turn, `O=C(NC1CCc2cc(-c3cccc(Cl)c3)ccc21)O[C@@H]1CN2CCC1CC2` (stereo partly drawn) [Example 6, (S)-quinuclidin-3-yl (5-(3-chlorophenyl)-2,3-dihydro-1H-inden-1-yl)carbamate] yielded an IC50 of 39.4 nM.

In turn, `O=C(NC1CCc2cc(-c3cccc(C(F)(F)F)c3)ccc21)O[C@@H]1CN2CCC1CC2` (stereo partly drawn) [Example 7, (S)-quinuclidin-3-yl (5-(3-(trifluoromethyl)phenyl)-2,3-dihydro-1H-inden-1-yl)carbamate] registered an IC50 of 36.8 nM.

Compound `O=C(NC1CCc2cc(-c3cccc(OC(F)(F)F)c3)ccc21)O[C@@H]1CN2CCC1CC2` (stereo partly drawn) [Example 8, (S)-quinuclidin-3-yl (5-(3-(trifluoromethoxy)phenyl)-2,3-dihydro-1H-inden-1-yl)carbamate] yielded an IC50 of 27.4 nM.

As for `O=C(NC1CCc2cc(-c3ccccc3F)ccc21)O[C@@H]1CN2CCC1CC2` (stereo partly drawn) [Example 9, (S)-quinuclidin-3-yl (5-(2-fluorophenyl)-2,3-dihydro-1H-inden-1-yl)carbamate], the midpoint of inhibition, the IC50, lay at 93.1 nM.

Turning to `O=C(NC1CCc2cc(-c3ccccc3Cl)ccc21)O[C@@H]1CN2CCC1CC2` (stereo partly drawn) [Example 10, (S)-quinuclidin-3-yl (5-(2-chlorophenyl)-2,3-dihydro-1H-inden-1-yl)carbamate], the IC50 is 65.5 nM.

Consider `O=C(NC1CCc2cc(-c3ccccc3C(F)(F)F)ccc21)O[C@@H]1CN2CCC1CC2` (stereo partly drawn) [Example 11, (S)-quinuclidin-3-yl (5-(2-(trifluoromethyl)phenyl)-2,3-dihydro-1H-inden-1-yl)carbamate], for which half-maximal inhibition (IC50) was put at 123 nM.

For the compound `O=C(NC1CCc2cc(-c3ccccc3OC(F)(F)F)ccc21)O[C@@H]1CN2CCC1CC2` (stereo partly drawn) [Example 12, (S)-quinuclidin-3-yl (5-(2-(trifluoromethoxy)phenyl)-2,3-dihydro-1H-inden-1-yl)carbamate], the IC50 worked out at 73 nM.

As for `Cc1ccc(-c2ccc3c(c2)CCC3NC(=O)O[C@@H]2CN3CCC2CC3)cc1` (stereo partly drawn) [Example 13, (S)-quinuclidin-3-yl (5-(p-tolyl)-2,3-dihydro-1H-inden-1-yl)carbamate], it took 41.7 nM to reach half-maximal inhibition (IC50).

Compound `O=C(NC1CCc2cc(-c3ccc(OC(F)F)cc3)ccc21)O[C@@H]1CN2CCC1CC2` (stereo partly drawn) [Example 14, (S)-quinuclidin-3-yl (5-(4-(difluoromethoxy)phenyl)-2,3-dihydro-1H-inden-1-yl)carbamate] returned an IC50 of 54.3 nM.

As to `O=C(NC1CCc2cc(-c3ccc(F)c(F)c3)ccc21)O[C@@H]1CN2CCC1CC2` (stereo partly drawn) [Example 15, (S)-quinuclidin-3-yl (5-(3,4-difluorophenyl)-2,3-dihydro-1H-inden-1-yl)carbamate], the IC50 is 34.4 nM.

`O=C(NC1CCc2cc(-c3ccc(F)cc3F)ccc21)O[C@@H]1CN2CCC1CC2` (stereo partly drawn) [Example 16, (S)-quinuclidin-3-yl (5-(2,4-difluorophenyl)-2,3-dihydro-1H-inden-1-yl)carbamate] returned a half-inhibitory concentration (IC50) of 56.1 nM.

In turn, `O=C(NC1CCc2cc(-c3cccc(F)c3F)ccc21)O[C@@H]1CN2CCC1CC2` (stereo partly drawn) [Example 17, (S)-quinuclidin-3-yl (5-(2,3-difluorophenyl)-2,3-dihydro-1H-inden-1-yl)carbamate] yielded an IC50 of 27.6 nM.

Consider `O=C(NC1CCc2cc(-c3cc(F)ccc3F)ccc21)O[C@@H]1CN2CCC1CC2` (stereo partly drawn) [Example 18, (S)-quinuclidin-3-yl (5-(2,5-difluorophenyl)-2,3-dihydro-1H-inden-1-yl)carbamate], for which the IC50 came to 31.6 nM.

On to `O=C(NC1CCc2cc(-c3cc(F)cc(F)c3)ccc21)O[C@@H]1CN2CCC1CC2` (stereo partly drawn) [Example 19, (S)-quinuclidin-3-yl (5-(3,5-difluorophenyl)-2,3-dihydro-1H-inden-1-yl)carbamate], for which the IC50 worked out at 20.3 nM.

`O=C(NC1CCc2cc(-c3ccc(F)c(F)c3F)ccc21)O[C@@H]1CN2CCC1CC2` (stereo partly drawn) [Example 20, (S)-quinuclidin-3-yl (5-(2,3,4-trifluorophenyl)-2,3-dihydro-1H-inden-1-yl)carbamate] yielded a 50% inhibitory concentration (IC50) of 126 nM.

The compound `O=C(NC1CCc2cc(-c3cc(F)c(F)cc3F)ccc21)O[C@@H]1CN2CCC1CC2` (stereo partly drawn) [Example 21, (S)-quinuclidin-3-yl (5-(2,4,5-trifluorophenyl)-2,3-dihydro-1H-inden-1-yl)carbamate] showed an IC50 of 127 nM.

The compound `O=C(NC1CCc2cc(-c3cc(Cl)cc(Cl)c3)ccc21)O[C@@H]1CN2CCC1CC2` (stereo partly drawn) [Example 22, (S)-quinuclidin-3-yl (5-(3,5-dichlorophenyl)-2,3-dihydro-1H-inden-1-yl)carbamate] registered an IC50 of 89.6 nM.

`O=C(NC1CCc2cc(-c3ccc(Cl)c(Cl)c3)ccc21)O[C@@H]1CN2CCC1CC2` (stereo partly drawn) [Example 23, (S)-quinuclidin-3-yl (5-(3,4-dichlorophenyl)-2,3-dihydro-1H-inden-1-yl)carbamate] gave an IC50 of 63.7 nM.

`O=C(NC1CCc2cc(-c3cc(Cl)ccc3Cl)ccc21)O[C@@H]1CN2CCC1CC2` (stereo partly drawn) [Example 24, (S)-quinuclidin-3-yl (5-(2,5-dichlorophenyl)-2,3-dihydro-1H-inden-1-yl)carbamate] displayed an IC50 of 17.4 nM.

In the case of `O=C(NC1CCc2ccc(-c3ccc(F)cc3)cc21)O[C@@H]1CN2CCC1CC2` (stereo partly drawn) [Example 25, (S)-quinuclidin-3-yl (6-(4-fluorophenyl)-2,3-dihydro-1H-inden-1-yl)carbamate], the IC50 came out at 106 nM.

The compound `O=C(NC1CCc2ccc(-c3ccc(Cl)cc3)cc21)O[C@@H]1CN2CCC1CC2` (stereo partly drawn) [Example 26, (S)-quinuclidin-3-yl (6-(4-chlorophenyl)-2,3-dihydro-1H-inden-1-yl)carbamate] registered an IC50 of 67.2 nM.

For the compound `O=C(NC1CCc2ccc(-c3ccc(C(F)(F)F)cc3)cc21)O[C@@H]1CN2CCC1CC2` (stereo partly drawn) [Example 27, (S)-quinuclidin-3-yl (6-(4-(trifluoromethyl)phenyl)-2,3-dihydro-1H-inden-1-yl)carbamate], inhibition was half-maximal at 35.7 nM (IC50).

In turn, `O=C(NC1CCc2ccc(-c3ccc(OC(F)(F)F)cc3)cc21)O[C@@H]1CN2CCC1CC2` (stereo partly drawn) [Example 28, (S)-quinuclidin-3-yl (6-(4-(trifluoromethoxy)phenyl)-2,3-dihydro-1H-inden-1-yl)carbamate] gave an IC50 of 52 nM.

In the case of `O=C(NC1CCc2ccc(-c3cccc(F)c3)cc21)O[C@@H]1CN2CCC1CC2` (stereo partly drawn) [Example 29, (S)-quinuclidin-3-yl (6-(3-fluorophenyl)-2,3-dihydro-1H-inden-1-yl)carbamate], the IC50 came to 63 nM.

For `O=C(NC1CCc2ccc(-c3cccc(Cl)c3)cc21)O[C@@H]1CN2CCC1CC2` (stereo partly drawn) [Example 30, (S)-quinuclidin-3-yl (6-(3-chlorophenyl)-2,3-dihydro-1H-inden-1-yl)carbamate], the concentration for half-maximal inhibition (IC50) amounted to 107 nM.

The compound `O=C(NC1CCc2ccc(-c3cccc(C(F)(F)F)c3)cc21)O[C@@H]1CN2CCC1CC2` (stereo partly drawn) [Example 31, (S)-quinuclidin-3-yl (6-(3-(trifluoromethyl)phenyl)-2,3-dihydro-1H-inden-1-yl)carbamate] registered an IC50 of 65.5 nM.

Take `O=C(NC1CCc2ccc(-c3cccc(OC(F)(F)F)c3)cc21)O[C@@H]1CN2CCC1CC2` (stereo partly drawn) [Example 32, (S)-quinuclidin-3-yl (6-(3-(trifluoromethoxy)phenyl)-2,3-dihydro-1H-inden-1-yl)carbamate]: 120 nM corresponded to half-maximal inhibition (IC50).

Compound `O=C(NC1CCc2ccc(-c3ccc(OC(F)F)cc3)cc21)O[C@@H]1CN2CCC1CC2` (stereo partly drawn) [Example 37, (S)-quinuclidin-3-yl (6-(4-(difluoromethoxy)phenyl)-2,3-dihydro-1H-inden-1-yl)carbamate] showed a concentration for half-maximal inhibition (IC50) of 55.2 nM.

For the compound `Cc1ccc(-c2ccc3c(c2)C(NC(=O)O[C@@H]2CN4CCC2CC4)CC3)cc1` (stereo partly drawn) [Example 38, (S)-quinuclidin-3-yl (6-(p-tolyl)-2,3-dihydro-1H-inden-1-yl)carbamate], 62 nM corresponded to half-maximal inhibition (IC50).

Take `O=C(NC1CCc2ccc(-c3ccc(F)c(F)c3)cc21)O[C@@H]1CN2CCC1CC2` (stereo partly drawn) [Example 39, (S)-quinuclidin-3-yl (6-(3,4-difluorophenyl)-2,3-dihydro-1H-inden-1-yl)carbamate]: the IC50 was found to be 51.9 nM.

For `O=C(NC1CCc2ccc(-c3ccc(F)cc3F)cc21)O[C@@H]1CN2CCC1CC2` (stereo partly drawn) [Example 43, (S)-quinuclidin-3-yl (6-(2,4-difluorophenyl)-2,3-dihydro-1H-inden-1-yl)carbamate], the IC50 was found to be 183 nM.

As to `O=C(NC1CCc2ccc(-c3cc(F)c(F)cc3F)cc21)O[C@@H]1CN2CCC1CC2` (stereo partly drawn) [Example 44, (S)-quinuclidin-3-yl (6-(2,4,5-trifluorophenyl)-2,3-dihydro-1H-inden-1-yl)carbamate], half-maximal inhibition (IC50) was put at 35.2 nM.

As to `O=C(NC1CCc2ccc(-c3ccc(F)c(F)c3F)cc21)O[C@@H]1CN2CCC1CC2` (stereo partly drawn) [Example 45, (S)-quinuclidin-3-yl (6-(2,3,4-trifluorophenyl)-2,3-dihydro-1H-inden-1-yl)carbamate], half-maximal inhibition (IC50) was put at 57.3 nM.

`O=C(NC1CCc2ccc(-c3cc(Cl)ccc3Cl)cc21)O[C@@H]1CN2CCC1CC2` (stereo partly drawn) [Example 46, (S)-quinuclidin-3-yl (6-(2,5-dichlorophenyl)-2,3-dihydro-1H-inden-1-yl)carbamate] gave an IC50 of 19.2 nM.

Values taken from patent US12522602B2, “Derivatives having 2,3-dihydro-1H-indene or 2,3-dihydrobenzofuran moiety or pharmaceutically acceptable salt thereof and pharmaceutical compositions comprising the same” (YUHAN CORPORATION, priority 2019, dated 2026).
